Laboratory results published in the Kinase Knowledgebase extract (Sharma et al. 2016).

Target: EGFR (human) (UniProt P00533)
Details: a431

Chain of EGFR (human) (P00533 whole entry, looked up): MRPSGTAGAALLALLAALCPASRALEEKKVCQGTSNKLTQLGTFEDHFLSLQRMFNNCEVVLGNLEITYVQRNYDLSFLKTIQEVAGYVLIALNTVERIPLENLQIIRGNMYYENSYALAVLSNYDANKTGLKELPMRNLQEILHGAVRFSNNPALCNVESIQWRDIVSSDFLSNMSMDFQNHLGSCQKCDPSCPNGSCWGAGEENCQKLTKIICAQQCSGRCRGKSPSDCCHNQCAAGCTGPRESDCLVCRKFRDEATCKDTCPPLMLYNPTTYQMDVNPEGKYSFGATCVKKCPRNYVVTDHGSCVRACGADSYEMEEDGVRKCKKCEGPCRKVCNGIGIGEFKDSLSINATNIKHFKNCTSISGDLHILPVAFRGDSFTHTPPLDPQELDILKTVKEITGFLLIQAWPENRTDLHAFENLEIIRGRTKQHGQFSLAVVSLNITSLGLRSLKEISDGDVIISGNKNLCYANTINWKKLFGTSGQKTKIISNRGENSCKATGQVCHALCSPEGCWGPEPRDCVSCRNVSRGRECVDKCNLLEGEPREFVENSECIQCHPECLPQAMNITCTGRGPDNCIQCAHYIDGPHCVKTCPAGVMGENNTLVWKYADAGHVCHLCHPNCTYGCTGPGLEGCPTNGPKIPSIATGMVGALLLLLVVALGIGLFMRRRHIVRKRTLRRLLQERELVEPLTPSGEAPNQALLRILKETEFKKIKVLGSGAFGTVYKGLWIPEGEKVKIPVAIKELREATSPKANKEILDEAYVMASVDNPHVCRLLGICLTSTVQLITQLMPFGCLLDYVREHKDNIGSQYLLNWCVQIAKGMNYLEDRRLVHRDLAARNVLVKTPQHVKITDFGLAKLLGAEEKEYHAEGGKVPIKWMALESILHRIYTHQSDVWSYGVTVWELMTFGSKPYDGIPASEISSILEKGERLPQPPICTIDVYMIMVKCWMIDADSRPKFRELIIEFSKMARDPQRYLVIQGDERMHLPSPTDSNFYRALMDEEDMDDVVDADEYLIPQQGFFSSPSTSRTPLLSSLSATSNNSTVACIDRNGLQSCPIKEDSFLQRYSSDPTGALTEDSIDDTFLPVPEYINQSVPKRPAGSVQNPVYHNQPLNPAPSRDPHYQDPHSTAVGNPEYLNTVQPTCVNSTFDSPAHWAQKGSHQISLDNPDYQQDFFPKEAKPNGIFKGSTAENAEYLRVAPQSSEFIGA

| Compound | IC50 [µM] |
| --- | --- |
| Nc1nc(Nc2cccc(Br)c2)c2ccn(Cc3ccccc3Cl)c2n1 | 88.4 |
| Nc1nc(Nc2cccc(Br)c2)c2ccn(Cc3ccc(-c4ccccc4)cc3)c2n1 | 13.3 |
| Nc1nc(Nc2cccc(Br)c2)c2ccn(Cc3cccc4ccccc34)c2n1 | 36.3 |
| COc1ccc(OC)c(Cn2ccc3c(Nc4cccc(Br)c4)nc(N)nc32)c1 | 40.6 |
| Nc1nc(Nc2cccc(Br)c2)c2ccn(Cc3ccccc3)c2n1 | 50.4 |
| Nc1nc(Nc2cccc(Br)c2)c2ccn(Cc3ccc(Cl)c(Cl)c3)c2n1 | 19.2 |
| Cc1ccccc1Cn1ccc2c(Nc3cccc(Br)c3)nc(N)nc21 | 15.7 |
| Nc1nc(Nc2cccc(Br)c2)c2ccn(Cc3ccc(Cl)cc3)c2n1 | 16.1 |
| Nc1nc(Nc2cccc(Br)c2)c2ccn(Cc3ccc4ccccc4c3)c2n1 | 20.4 |
| Nc1nc(Nc2cccc(Br)c2)c2ccn(Cc3ccc(Cl)cc3Cl)c2n1 | 15.3 |
| COc1cc(Cn2ccc3c(Nc4cccc(Br)c4)nc(N)nc32)cc(OC)c1OC | 39 |
